What was measured:
[1] = Surface tension of surface-active agent; type: physicochemical; settings: in aqueous solution
Description: According to the present invention, the term fluorine-containing gel is defined as a gel-like preparation which comprises a minimum of one fluorocarbon. In especially useful embodiments of the present invention, the fluorine-containing gel comprises essentially three components, i.e., a fluorocarbon, a fluorine-containing surface-active agent, and water. It is possible for different additives to be added to the fluorocarbon-containing and aqueous components. Certain compositions of surface-active agents, fluorocarbons, and water form gels which are able to completely recover their gel structure after they have been liquefied, for example, by exposure to mechanical pressure or heat. This property of the gels according to the present invention makes it possible for them to be used as a generic implant over a long period of time. If the implant material of such an implant that has been inserted into a bodily orifice were to liquefy, for example, as a result of short-term pressure, the gel structure, due to the reversibility described, would be able to recover when in a state of rest. Thus, the implant according to the present invention has a self-regulating restorative mechanism. This self-regulating restorative mechanism of a polyaphron gel is attributable to the stability of the aphrons that form the gel. After liquefaction, a gel can restore its structure only if its “building blocks,” the aphrons, were not completely destroyed. If a sufficient number of intact aphrons remain after liquefaction, a recovery is possible, and what comes as a surprise is the fact that the aphron structure is transferred to the homogenized regions of the surrounding liquid and that the gel structure is restored in the entire liquid. The stability of the aphrons depends on the intensity of the interaction between water, surface-active agent, and perfluorocarbon, which in turn is determined by the surface properties and the ability of the individual phases to spread on each other's surface. In addition, an important aspect is the intensity of the interactions of the molecules within the films that envelop the aphrons (water/surface-active agent; perfluorocarbon/surface-active agent). Thus, the self-regulating restorative mechanism is activated only if the surface properties of the surface-active agent/water and/or surface-active agent/perfluorocarbon film, on the one hand, and of the internal aphron phase, on the other hand, are properly coordinated, i.e., if the strength of the surface-active agent stabilizes the aphron structure. This can be implemented through the use of fluorine-containing surface-active agents of the general formula RF—Rpol, where RF stands for the linear or branched perfluoroalkyl groups with more than 5 carbon atoms and Rpol stands for a polar hydrocarbon residue which comprises a minimum of one functional group which is selected from CO—NH(R), CO—N(R)2, COO—, COOR, SO3; SO2N(R)2, CH2—O—R, PO2H, PO3H. The molecular weight is preferably >400 g/mol, the surface tension in aqueous solution is <30 mN/m and preferably <20 mN/m. The interfacial tension in aqueous solution with respect to the nonpolar component is <25 mN/m, preferably <10 mN/m, and the concentration is <3%, preferably <0.1%. With nonfluorinated surface-active agents, this can be achieved by means of a strong cohesive effect with an HLB value greater than 25 (HLB=hydrophilic lipophilic balance according to Griffin in J. Soc. Cosmet. Chem. 1 (1949), p. 311).

[2] = Interfacial tension with respect to the nonpolar component; type: physicochemical; settings: surface-active agent, in aqueous solution
Description: According to the present invention, the term fluorine-containing gel is defined as a gel-like preparation which comprises a minimum of one fluorocarbon. In especially useful embodiments of the present invention, the fluorine-containing gel comprises essentially three components, i.e., a fluorocarbon, a fluorine-containing surface-active agent, and water. It is possible for different additives to be added to the fluorocarbon-containing and aqueous components. Certain compositions of surface-active agents, fluorocarbons, and water form gels which are able to completely recover their gel structure after they have been liquefied, for example, by exposure to mechanical pressure or heat. This property of the gels according to the present invention makes it possible for them to be used as a generic implant over a long period of time. If the implant material of such an implant that has been inserted into a bodily orifice were to liquefy, for example, as a result of short-term pressure, the gel structure, due to the reversibility described, would be able to recover when in a state of rest. Thus, the implant according to the present invention has a self-regulating restorative mechanism. This self-regulating restorative mechanism of a polyaphron gel is attributable to the stability of the aphrons that form the gel. After liquefaction, a gel can restore its structure only if its “building blocks,” the aphrons, were not completely destroyed. If a sufficient number of intact aphrons remain after liquefaction, a recovery is possible, and what comes as a surprise is the fact that the aphron structure is transferred to the homogenized regions of the surrounding liquid and that the gel structure is restored in the entire liquid. The stability of the aphrons depends on the intensity of the interaction between water, surface-active agent, and perfluorocarbon, which in turn is determined by the surface properties and the ability of the individual phases to spread on each other's surface. […]

Molecule | σO = surface tension [1] | σG = interfacial tension with respect to the nonpolar component [2] [mNm]
O=C(N(CCO)CC(O)C(O)C(O)C(O)CO)C(F)(F)C(F)(F)C(F)(F)C(F)(F)C(F)(F)C(F)(F)C(F)(F)F [Example T16, Perfluorooctanoic acid N-(2-hydroxyethyl)-D-glucamide] | σO < 20 mNm | 
Fluorinated amine oxide [Fluowet OX] | 22 mNm | 12
CC[N+](CC)(CC)CC.O=S(=O)([O-])C(F)(F)C(F)(F)C(F)(F)C(F)(F)C(F)(F)C(F)(F)C(F)(F)C(F)(F)F [Example B248, Tetraethyl animonium salt of perfluorooctanesulfonic acid] | σO < 20 mNm | 
CN(C[C@H](O)[C@@H](O)[C@H](O)[C@H](O)CO)C(=O)C(F)(F)C(F)(F)C(F)(F)C(F)(F)C(F)(F)C(F)(F)C(F)(F)F [Example T14, Perfluorooctanoic acid N-methyl-D-glucamide] | σO < 20 mNm | 
Perfluorooctanoic acid tetraethyl piperazinium salt [HO224] | σO = 16 mNm | 
Perfluoroalkyl ethanol oxethylate [Fluowet OTL] | 19 mNm | 10
O=C(N(CCO)CCO)C(F)(F)C(F)(F)C(F)(F)C(F)(F)C(F)(F)C(F)(F)C(F)(F)F [HO31, Perfluorooctanoic acid diethanolamide] | σO < 20 mNm | 
O=C(N(CCO)C[C@H](O)[C@@H](O)[C@H](O)[C@H](O)CO)C(F)(F)C(F)(F)C(F)(F)C(F)(F)C(F)(F)C(F)(F)C(F)(F)C(F)(F)C(F)(F)F [Example T21, Perfluorodecanoic acid N-(2-hydroxyethyl)-D-glucamide] | σO < 20 mNm | 
Perfluoroalkyl ethanol oxethylate [Fluowet OTN] | 18 mNm | 19
C[N+](C)(C)C.O=C([O-])C(F)(F)C(F)(F)C(F)(F)C(F)(F)C(F)(F)C(F)(F)C(F)(F)F [E 749, Tetramethyl ammonium salt of perfluorooctanoic acid] | σO < 20 mNm | 

Source: patent US6984394B2, “Plastically deformable implant” (Bausch & Lomb Incorporated, priority 1999, dated 2006)
